Laboratory results published in article PMC5983823, “Screening of Natural Product Derivatives Identifies Two Structurally Related Flavonoids as Potent Quorum Sensing Inhibitors against Gram-Negative Bacteria” (International Journal of Molecular Sciences, 2018).

Key:
[1] = system: P. aeruginosa and E. coli biofilms; experiment: Transmitted light microscopy of biofilms; format: cell-based, Pseudomonas aeruginosa, Escherichia coli; conditions: 100 µM, all the tested strains, crystal violet, 40×
Method: For imaging, bacteria were allowed to adhere and form microcolonies on coverslips. Briefly, 5 mL of diluted cultures (10^6 CFU/mL) of P. aeruginosa and E. coli was added to 6-well plates containing glass coverslips (22 mm × 22 mm). The plates were incubated at 37 °C without shaking for 2 h. Thereafter, bacterial suspensions were removed, and the wells were washed once with PBS. Fresh LB with and without the lead compounds at a final concentration of 100 µM was added to the wells, and the plates were incubated at 37 °C for 22 h. At the end of 24 h, coverslips were rinsed three times with MQ-water and air dried followed by staining with 0.23% (v/v) crystal violet solution. Coverslips were allowed to dry and visualized under a Transmitted Light Microscope (EVOS® XL Imaging System, InvitrogenTM, Thermo Fisher Scientific, San Jose, CA, USA) at a magnification of 40×.

C. violaceum ATCC 31532 = experiment: Violacein extraction assay (QS-mediated violacein production); format: cell-based; conditions: Chromobacterium violaceum, ATCC31532, 40 µM, C. violaceum ATCC 31532, mean ± SD of three independent tests; read-out: Inhibition-% of violacein production
[2] = system: mouse monocyte macrophage (RAW 264.7) cells; experiment: Cytotoxicity testing (CellTiter Glo); format: cell-based; conditions: 24 h exposure
Method: (§1) Human lung (HL) epithelial cells were grown in RPMI 1640 (Biowhittaker, Lonza, Viewers, Bornem, Belgium) supplemented with 10% inactivated fetal bovine serum (FBS), 2 mM L-glutamine and gentamycin 20 µg/mL, and mouse monocyte macrophage RAW 264.7 cells in DMEM medium supplemented with 10% FBS and 20 µg/mL gentamycin. Cells (3 × 10^5 cells/mL) were seeded into 96-microtiter well plates (Cellstar TC, Greiner Bio-One GmbH, Frickenhausen, Germany), 200 µL per well, and incubated at 37 °C in 5% CO2 24 h before exposure to the compounds. After the incubation, culture medium was discarded, the wells were washed with PBS, and the compound dilutions prepared in culture media were added as triplicates to a final volume of 200 µL. Usnic acid (200 µM, Sigma Aldrich, St. Louis, MO, USA) was included as positive control and DMSO (1%) as solvent control. Plates were incubated for additional 24 h. At the end of 24 h, media was removed, wells were washed twice with PBS and 100 µL of PBS was added. CellTiter Glo® reagent (Promega, Madison, WI, USA) was prepared according to manufacturer’s instructions, and 100 µL was added to the wells. The plates were shaken for two minutes and equilibrated at room temperature for 10 min prior to measuring the luminescence using Varioskan LUX multimode plate reader (Thermo Scientific, Vantaa, Finland). Inhibition of cell viability was calculated in relation to the untreated cells.

[3] = system: human lung (HL) epithelial cells; experiment: Cytotoxicity testing (CellTiter Glo); format: cell-based; conditions: 24 h exposure
Method: as §1

P. aeruginosa ATCC 15422 = experiment: Crystal violet staining assay, transition from microcolonies to fully formed biofilms; format: cell-based; conditions: Pseudomonas aeruginosa, ATCC15422, read-out: Inhibitory activity on the transition from microcolonies to fully formed biofilms
Method: (§2) Crystal violet-based biomass staining assay was performed to assess the effects of the compounds on the transition from microcolonies to fully formed as recently described in [26] with minor modifications. Briefly, diluted cultures of exponentially grown P. aeruginosa ATCC 9027, ATCC 15442 and PA01, and E. coli K-12 (10^6 CFU/mL) were added to the 96-microtiter well plates (200 µL per well) to form microcolonies for two hours (37 °C). At the end of this period, bacterial suspensions were removed, compounds at a final concentration of 400 µM and fresh LB media were added, and plates were incubated at 37 °C, with shaking (200 rpm) for additional 22 h. After the incubation period, media was discarded and the biofilms were washed once with sterile Milli-Q (MQ)-water. Biomass was fixed with methanol for 15 min followed by staining with 0.23% (v/v) crystal violet (Sigma-Aldrich, Munich, Germany) solution prepared in MQ-water (200 µL per well) for 5 min. Thereafter, wells were washed twice with MQ-water and 200 µL of 96% ethanol was added to the wells. Absorbance was measured at 595 nm using Varioskan Flash after 1 h.

P. aeruginosa PAO1 = experiment: as above; format: cell-based; conditions: Pseudomonas aeruginosa, P. aeruginosa PAO1, mean ± SD, read-out: Inhibitory activity on the transition from microcolonies to fully formed biofilms
Method: as §2

E. coli K-12 = experiment: as above; format: cell-based; conditions: Escherichia coli, K12, E. coli K-12, mean ± SD, read-out: Inhibitory activity on the transition from microcolonies to fully formed biofilms
Method: as §2

P. aeruginosa ATCC 9027 = experiment: as above; format: cell-based; conditions: Pseudomonas aeruginosa, ATCC9027, P. aeruginosa ATCC 9027, mean ± SD, read-out: Inhibitory activity on the transition from microcolonies to fully formed biofilms
Method: as §2

C. violaceum = system: C. violaceum; design: method as in PMID 27626397; conditions: cited from earlier work

Structure (SMILES)	Effect on biofilm structure and formation [1]	inhibition at 40 µM (C. violaceum ATCC 31532)	Inhibition-% of cell viability ([2]; 10 µM)	Inhibition-% of cell viability ([2]; 40 µM)	Inhibition-% of cell viability ([3]; 10 µM)	Inhibition-% of cell viability ([3]; 40 µM)	Inhibition-% of cell viability ([3]; 100 µM)	inhibition at 400 µM (P. aeruginosa ATCC 15422)	inhibition at 400 µM (P. aeruginosa PAO1)	inhibition at 400 µM (E. coli K-12)	inhibition at 400 µM (P. aeruginosa ATCC 9027)	Anti-QS activity class in earlier screening (C. violaceum)	Inhibition-% of cell viability ([2]; 100 µM)
CCC(=O)Oc1c(-c2ccccc2Cl)oc2ccccc2c1=O [Compound 2117, 2-(2-chlorophenyl)-4-oxochromen-3-yl propanoate]	alteration of biofilm structure and reduced biofilm formation	> 90%	N.I.	N.I.	N.I.	N.I.	11.2 ± 4.9%	11.2 ± 1.8%	42.3 ± 12.4%	51.3 ± 6.9%	27.2 ± 6%	among the most active compounds	
CCCCCCCCCC(=O)Oc1c(-c2ccc(OC)cc2)oc2ccccc2c1=O [Compound 2896, 2-(4-methoxyphenyl)-4-oxochromen-3-yl decanoate]	alteration of biofilm structure and reduced biofilm formation	83.5 ± 1.4%	N.I.	N.I.	N.I.	N.I.	did not display any effects on the cell viability and N.I.	28.1 ± 15.1%	11.6 ± 11.1%	14.3 ± 10.1%	22.5 ± 3.2%		did not display any effects on the cell viability and N.I.
